Results: ChEMBL document CHEMBL4665641, “Lead optimization and efficacy evaluation of quinazoline-based BET family inhibitors for potential treatment of cancer and inflammatory diseases” (Bioorg Med Chem Lett, 2019)
Each block holds one compound with its values, some of them ahead of it.

How the values were obtained:
Kasumi 1 [1] = assay: Antitumor activity against human Kasumi-1 cells xenografted in CB17 SCID mouse assessed as tumor weight at 10 mg/kg, po administered for 25 days (reference value: 2.57 +/- 0.27 g); format: functional; conditions: time 25 day
[2] = Drug uptake in tumor tissue of CB17 SCID mouse xenografted with human Kasumi-1 cells at 40 mg/kg, po QD for 25 days and measured after 24 hrs post last dose; format: ADME, organism-based, Neoplasm; conditions: time 25 day, read-out: Drug uptake
[3] = Toxicity in CB17 SCID mouse xenografted with human Kasumi-1 cells assessed body weight loss at 40 mg/kg, po QD for 25 days; format: organism-based; conditions: in vivo, 600 h, time 25 day
Kasumi 1 [4] = assay: Antitumor activity against human Kasumi-1 cells xenografted in CB17 SCID mouse assessed as tumor volume at 10 mg/kg, po QD for 25 days (reference value: 2189 +/- 604 mm3); format: functional; conditions: time 25 day
Kasumi 1 [5] = assay: Antitumor activity against human Kasumi-1 cells xenografted in CB17 SCID mouse assessed as tumor volume at 40 mg/kg, po QD for 25 days (reference value: 2189 +/- 604 mm3); format: functional; conditions: time 25 day
Kasumi 1 [6] = assay: Antitumor activity against human Kasumi-1 cells xenografted in CB17 SCID mouse assessed as tumor weight at 10 mg/kg, po QD for 29 days (reference value: 2.1+/- 0.3 g); format: functional; conditions: time 29 day
Kasumi 1 [7] = assay: Antitumor activity against human Kasumi-1 cells xenografted in CB17 SCID mouse assessed as tumor weight at 40 mg/kg, po QD for 25 days (reference value: 2.57 +/-0.27 g); format: functional; conditions: time 25 day
Kasumi 1 [8] = assay: Antitumor activity against human Kasumi-1 cells xenografted in CB17 SCID mouse assessed as tumor volume at 10 mg/kg, po QD for 29 days (reference value: 1734 +/- 220 mm3); format: functional; conditions: time 29 day
[9] = Cmax in CD-1 mouse at 2 mg/kg, iv measured after 5 mins; format: ADME, organism-based; parameters: route intravenous, dose 2 mg/kg; conditions: mouse, in vivo, 5 min
[10] = AUC(0 to infinity) in CD-1 mouse at 10 mg/kg, po; format: ADME, organism-based; parameters: route oral, time infinity, dose 10 mg/kg; conditions: mouse, in vivo
[11] = Cmax in CD-1 mouse at 10 mg/kg, po; format: ADME, organism-based; parameters: route oral, dose 10 mg/kg; conditions: CD-1, mouse, in vivo, read-out: Cmax
[12] = molecular target: T1, Bromodomain-containing protein 4 (Homo sapiens, UniProt O60885); assay: Competitive binding affinity to human partial length BRD4 (BD1,2) (N44 to E460 residues) expressed in bacterial expression system by BROMOscan assay
[13] = AUC(0 to infinity) in CD-1 mouse at 2 mg/kg, iv; format: ADME, organism-based; parameters: time infinity, route intravenous, dose 2 mg/kg; conditions: CD-1, mouse, in vivo
Kasumi 1 [14] = assay: Antiproliferative activity against human Kasumi-1 cells after 72 hrs by Celltiter-Glo assay; format: functional, cell-based; conditions: Kasumi 1, 72 h
Kasumi 1 [15] = assay: Antitumor activity against human Kasumi-1 cells xenografted in CB17 SCID mouse assessed as inhibition of tumor growth at 10 mg/kg, po QD for 25 days; format: functional; conditions: Kasumi 1, po, 600 h, time 25 day, read-out: TGI
MV4-11 = assay: Cytotoxicity against human MV4-11 cells assessed as inhibition of cell viability; format: functional, cell-based
[16] = Toxicity in CB17 SCID mouse xenografted with human Kasumi-1 cells assessed body weight loss at 10 to 40 mg/kg, po QD for 25 days; format: organism-based; conditions: in vivo, 600 h, dose 10-40 mg/kg, time 25 day
[17] = Stability in mouse liver microsomes assessed as half life; format: ADME, Microsome
[18] = Half life in CD-1 mouse at 2 mg/kg, iv; format: ADME, organism-based; conditions: in vivo
[19] = Half life in CD-1 mouse at 10 mg/kg, po; format: ADME, organism-based; conditions: in vivo
[20] = Stability in human liver microsomes assessed as half life; format: ADME, Microsome
[21] = Volume of distribution at steady state in CD-1 mouse at 2 mg/kg, iv; format: ADME, organism-based; conditions: in vivo, read-out: Vdss
[22] = Plasma clearance in CD-1 mouse at 2 mg/kg, iv; format: ADME, organism-based
Kasumi 1 [23] = assay: Antitumor activity against human Kasumi-1 cells xenografted in CB17 SCID mouse assessed as inhibition of tumor growth at 40 mg/kg, po QD for 25 days; format: functional; conditions: Kasumi 1, po, 600 h, time 25 day, read-out: TGI
[24] = Drug uptake in tumor tissue of CB17 SCID mouse xenografted with human Kasumi-1 cells at 10 mg/kg, po QD for 25 days and measured after 24 hrs post last dose; format: ADME, organism-based, Neoplasm; conditions: time 25 day, read-out: Drug uptake
[25] = molecular target: T1, Bromodomain-containing protein 4; assay: Inhibition of human full-length recombinant N-terminal His-tagged BRD4 (2 to 1362 residues) expressed in Sf9 cells using histone H4 peptide containing acetylated lysine residues as substrate preincubated with enzyme for 30 mins followed by incubation with substrate for 30 mins by Alphascreen assay […]
[26] = Stability in rat liver microsomes assessed as half life; format: ADME, Microsome
Mus musculus [27] = assay: (§1) Antiinflammatory activity in collagen/complete freund's adjuvant-induced arthritis DBA/1 mouse model assessed as IL-6 level in rear right paw at 1 mg/kg, po administered via gavage starting from day 21 to day 41 post collagen/CFA challenge and measured on day 42 measured per mg protein (reference value: 180.7 pg); format: functional; conditions: time 21 day
Mus musculus [28] = assay: as §1, with “VEGF” for “IL-6”, “0.98” for “180.7”; format: functional; conditions: time 21 day
[29] = Toxicity in collagen/CFA induced arthritis DBA/1 mouse model assessed as body weight loss at 1 mg/kg, po administered via gavage starting from day 21 to day 41 post collagen/CFA challenge and measured on day 0, 18, 21 followed by three times weekly up to 42 days; format: organism-based; conditions: in vivo, 504 h, time 21 day
Mus musculus [30] = assay: Antiarthritic activity in collagen/complete freund's adjuvant-induced arthritis DBA/1 mouse model assessed as paw thickness at 1 mg/kg, po administered via gavage starting from day 21 to day 41 post collagen/CFA challenge and measured on day 21 by caliper analysis (reference value: 2.48 millimeter); format: functional; conditions: time 21 day
Mus musculus [31] = assay: as §1, with “TNF-alpha” for “IL-6”, “0.88” for “180.7”; format: functional; conditions: time 21 day
Mus musculus [32] = assay: as §1, with “IL-1 beta” for “IL-6”, “3.15” for “180.7”; format: functional; conditions: time 21 day
Mus musculus [33] = assay: as §1, with “IL-2” for “IL-6”, “0.2” for “180.7”; format: functional; conditions: time 21 day
Mus musculus [34] = assay: as §1, with “IP-10” for “IL-6”, “6.23” for “180.7”; format: functional; conditions: time 21 day
Mus musculus [35] = assay: as §1, with “MCP-1” for “IL-6”, “126.24” for “180.7”; format: functional; conditions: time 21 day
Mus musculus [36] = assay: as §1, with “IFN-gamma” for “IL-6”, “0.78” for “180.7”; format: functional; conditions: time 21 day
[37] = Toxicity in collagen/CFA induced arthritis DBA/1 mouse model assessed as body weight at 1 mg/kg, po administered via gavage starting from day 21 to day 41 post collagen/CFA challenge and measured on day 21 relative to initial weight (reference value: 94.96%); format: organism-based; conditions: in vivo, 504 h, time 21 day

SMILES: CCNC(=O)C[C@@H]1N=C(c2ccc(Cl)cc2)c2cc(OC)ccc2-n2c(C)nnc21 [MOLIBRESIB]
Activity (Kasumi 1 [1]): 0.52 g | concentration at 600 h [2]: 16 ng/g | Activity [3]: Toxic | Activity (Kasumi 1 [4]): 586 mm3 | Activity (Kasumi 1 [5]): 79 mm3 | Activity (Kasumi 1 [6]): 0.3 g | Activity (Kasumi 1 [7]): 0.07 g | Activity (Kasumi 1 [8]): 330 mm3

Cmax [9]: 1940 ng/mL | AUC [10]: 15013 ng·h/mL | Cmax [11]: 2040 ng/mL | concentration at 600 h [2]: 4210 ng/g | Kd [12]: 230 nM | AUC(0-inf) [13]: 3370 ng·h/mL | t1/2 [17]: 1.7 h | half-life [18]: 1.5 h | half-life [19]: 1.8 h | half-life [20]: 1.77 h | Vd [21]: 1.28 L/kg | clearance [22]: 10.1 mL/min/kg | concentration at 600 h [24]: 303 ng/g | IC50 [25]: 76 nM | half-life [26]: 0.55 h
SMILES: Cc1noc(C)c1-c1ccc2nc(-c3cnn(CC(C)(C)O)c3)nc(N3CCOC[C@@H]3C3CC3)c2c1
Activity (Kasumi 1 [1]): 1.31 g | Activity (Kasumi 1 [4]): 1001 mm3 | IC50 (Kasumi 1 [14]): 520 nM | inhibition in vivo at 10 mg/kg (Kasumi 1 [15]): 49.1% | IC50 (MV4-11): 1660 nM | Activity [16]: Non-Toxic | Activity (Kasumi 1 [5]): 51 mm3 | inhibition in vivo at 40 mg/kg (Kasumi 1 [23]): 98.8% | Activity (Kasumi 1 [7]): 0.03 g

SMILES: C[C@@H]1C[C@H]2[C@@H]3CCC4=CC(=O)C=C[C@]4(C)[C@@]3(F)[C@@H](O)C[C@]2(C)[C@@]1(O)C(=O)CO [DEXAMETHASONE]
Activity (Mus musculus [27]): 2.17 pg | Activity (Mus musculus [28]): 0.85 pg | Activity [29]: Toxic | Activity (Mus musculus [30]): 1.53 mm | Activity (Mus musculus [31]): 0.39 pg | Activity (Mus musculus [32]): 2.32 pg | Activity (Mus musculus [33]): 0.63 pg | Activity (Mus musculus [34]): 0.86 pg | Activity (Mus musculus [35]): 1.99 pg | Activity (Mus musculus [36]): 1.5 pg | Activity [37]: 92.74%
